Source: patent publication US6525001B1, “Substituted pyrimidine and pyridine herbicides” (Mid-American Commercialization Corporation, priority 1997, dated 2003)

Key:
Assay type in all cases: in vivo
[1] = test system: purple nutsedge (Cyperus rotundus); experiment: Test E pre-/postemergence/post directed; design: key: 0 is no injury; 100 is complete control
From the text: (§1) Seeds, tubers, or plant parts of alexandergrass (Brachiaria plantaginea), annual bluegrass (Poa annua), arrowleaf sida (Sida rhombifolia), barnyardgrass (Echinochloa crus-galli), bermudagrass (Cynodon dactylon), citrus (Citrus sinensis), common chickweed (Stellaria media), common purslane (Portulaca oleracea), common ragweed (Ambrosia elatior), common groundsel (Senecio vulgaris), dallisgrass (Paspalum dilatatum), goosegrass (Eleusine indica), green foxtail (Setaria viridis), guineagrass (Panicum maximum), itchgrass (Rottboellia exaltata), johnson grass (Sorghum halepense), kochia (Kochia scoparia), large crabgrass (Digitaria sanguinalis), leafy spurge (Euphorbia esula), pitted morningglory (Ipomoea lacunosa), purple nutsedge (Cyperus rotundus), quackgrass (Agropyron repens), Russian thistle (Salsola kali), sandbur (Cenchrus echinatus), sourgrass (Trichachne insularis), Spanishneedles (Bidens bipinnata), sugarcane (Saccharum officinarum), surinam grass (Brachiaria decumbens) and tall mallow (Malva sylvestris) were planted into greenhouse pots of flats containing greenhouse planting medium. Plant species were grown grown in separate pots or individual compartments. Preemergence applications were made within one day of planting the seed or plant part. Postemergence applications were applied when the plants were in the two to four leaf stage (three to twenty cm).
(§2) Test chemicals were formulated in a non-phytotoxic solvent mixture which included a surfactant and applied preemergence to the soil surface, postemergence to the plants or as a post directed spray to plants and soil at the base of the target species. Untreated control plants and treated plants were placed in the greenhouse and visually evaluated for injury 13 to 21 days after herbicide application. Plant response ratings, summarized in Table E, are based on a 0 to 100 scale where 0 is no injury and 100 is complete control. A dash (−) response means no test result.

[2] = test system: Spanishneedles (Bidens bipinnata); experiment: Test E pre-/postemergence/post directed
From the text: as §1, §2

[3] = test system: alexandergrass (Brachiaria plantaginea); experiment: Test E pre-/postemergence/post directed
From the text: as §1, §2

[4] = test system: bermudagrass (Cynodon dactylon); experiment: Test E pre-/postemergence/post directed
From the text: as §1, §2

[5] = test system: common groundsel (Senecio vulgaris); experiment: Test E pre-/postemergence/post directed
From the text: as §1, §2

[6] = test system: common ragweed (Ambrosia elatior); experiment: Test E pre-/postemergence/post directed
From the text: as §1, §2

[7] = test system: itchgrass (Rottboellia exaltata); experiment: Test E pre-/postemergence/post directed
From the text: as §1, §2

[8] = test system: johnson grass (Sorghum halepense); experiment: Test E pre-/postemergence/post directed
From the text: as §1, §2

[9] = test system: large crabgrass (Digitaria sanguinalis); experiment: Test E pre-/postemergence/post directed
From the text: as §1, §2

[10] = test system: pitted morningglory (Ipomoea lacunosa); experiment: Test E pre-/postemergence/post directed
From the text: as §1, §2

[11] = test system: sandbur (Cenchrus echinatus); experiment: Test E pre-/postemergence/post directed
From the text: as §1, §2

[12] = test system: surinam grass (Brachiaria decumbens); experiment: Test E pre-/postemergence/post directed
From the text: as §1, §2

[13] = test system: arrowleaf sida (Sida rhombifolia); experiment: Test C; design: key: 0 was no effect; 100 was complete control; conditions: PREEMERGENCE
[14] = test system: cocklebur (Xanthium strumarium); experiment: Test C; design: key: 0 was no effect; 100 was complete control; conditions: PREEMERGENCE
corn (Zea mays) = experiment: Test C; conditions: PREEMERGENCE
[15] = test system: hairy beggarticks (Bidens pilosa); experiment: Test C; design: key: 0 was no effect; 100 was complete control; conditions: PREEMERGENCE
[16] = test system: ivyleaf morningglory (Ipomoea hederacea); experiment: Test C; conditions: PREEMERGENCE
[17] = test system: large crabgrass (Digitaria sanguinalis); experiment: Test C; design: key: 0 was no effect; 100 was complete control; conditions: PREEMERGENCE
[18] = test system: purple nutsedge (Cyperus rotundus); experiment: Test C; design: key: 0 was no effect; 100 was complete control; conditions: PREEMERGENCE
soybean (Glycine max) = experiment: Test C; design: key: 0 was no effect; 100 was complete control; conditions: PREEMERGENCE

Cc1cnc(-n2cnc(C(F)(F)F)n2)nc1C(=O)c1cccc(C(F)(F)F)c1 [Compound 67]
Plant response rating, Purple nutsedge ([1]; PREEMERGENCE, Rate 32 g/ha): 0
Plant response rating, Purple nutsedge ([1]; PREEMERGENCE, Rate 64 g/ha): 5
Plant response rating, Purple nutsedge ([1]; PREEMERGENCE, Rate 125 g/ha): 5
Plant response rating, Purple nutsedge ([1]; PREEMERGENCE, Rate 250 g/ha): 10
Plant response rating, Spanishneedles ([2]; PREEMERGENCE, Rate 125 g/ha): 50
Plant response rating, Spanishneedles ([2]; PREEMERGENCE, Rate 250 g/ha): 50
Plant response rating, Alexandergrass ([3]; PREEMERGENCE, Rate 32 g/ha): 25
Plant response rating, Alexandergrass ([3]; PREEMERGENCE, Rate 64 g/ha): 40
Plant response rating, Alexandergrass ([3]; PREEMERGENCE, Rate 125 g/ha): 70
Plant response rating, Alexandergrass ([3]; PREEMERGENCE, Rate 250 g/ha): 95
Plant response rating, Bermudagrass ([4]; PREEMERGENCE, Rate 32 g/ha): 70
Plant response rating, Bermudagrass ([4]; PREEMERGENCE, Rate 64 g/ha): 90
Plant response rating, Bermudagrass ([4]; PREEMERGENCE, Rate 125 g/ha): 90
Plant response rating, Com. groundsel ([5]; PREEMERGENCE, Rate 64 g/ha): 50
Plant response rating, Com. groundsel ([5]; PREEMERGENCE, Rate 125 g/ha): 95
Plant response rating, Com. ragweed ([6]; PREEMERGENCE, Rate 32 g/ha): 90
Plant response rating, Com. ragweed ([6]; PREEMERGENCE, Rate 64 g/ha): 95
Plant response rating, Itchgrass ([7]; PREEMERGENCE, Rate 32 g/ha): 40
Plant response rating, Itchgrass ([7]; PREEMERGENCE, Rate 64 g/ha): 40
Plant response rating, Itchgrass ([7]; PREEMERGENCE, Rate 125 g/ha): 65
Plant response rating, Itchgrass ([7]; PREEMERGENCE, Rate 250 g/ha): 80
Plant response rating, Johnsongrass ([8]; PREEMERGENCE, Rate 32 g/ha): 35
Plant response rating, Johnsongrass ([8]; PREEMERGENCE, Rate 64 g/ha): 35
Plant response rating, Johnsongrass ([8]; PREEMERGENCE, Rate 125 g/ha): 50
Plant response rating, Johnsongrass ([8]; PREEMERGENCE, Rate 250 g/ha): 80
Plant response rating, Large crabgrass ([9]; PREEMERGENCE, Rate 32 g/ha): 90
Plant response rating, Large crabgrass ([9]; PREEMERGENCE, Rate 64 g/ha): 95
Plant response rating, Large crabgrass ([9]; PREEMERGENCE, Rate 125 g/ha): 98
Plant response rating, P. morninglory ([10]; PREEMERGENCE, Rate 32 g/ha): 60
Plant response rating, P. morninglory ([10]; PREEMERGENCE, Rate 64 g/ha): 75
Plant response rating, P. morninglory ([10]; PREEMERGENCE, Rate 125 g/ha): 90
Plant response rating, P. morninglory ([10]; PREEMERGENCE, Rate 250 g/ha): 90
Plant response rating, Sandbur ([11]; PREEMERGENCE, Rate 32 g/ha): 60
Plant response rating, Sandbur ([11]; PREEMERGENCE, Rate 64 g/ha): 60
Plant response rating, Sandbur ([11]; PREEMERGENCE, Rate 125 g/ha): 65
Plant response rating, Sandbur ([11]; PREEMERGENCE, Rate 250 g/ha): 75
Plant response rating, Surinam grass ([12]; PREEMERGENCE, Rate 32 g/ha): 35
Plant response rating, Surinam grass ([12]; PREEMERGENCE, Rate 64 g/ha): 75
Plant response rating, Surinam grass ([12]; PREEMERGENCE, Rate 125 g/ha): 75

Cc1cnc(-c2ccc(C(F)(F)F)cc2)nc1Cc1cccc(C(F)(F)F)c1 [Example 1, 5-methyl-2-[4-(trifluoromethyl)phenyl]-4-[[3-(trifluoromethyl)phenyl]methyl]pyrimidine]
Plant response rating, Arrowleaf sida ([13]; Rate 35 g/ha): 85
Plant response rating, Arrowleaf sida ([13]; Rate 70 g/ha): 95
Plant response rating, Arrowleaf sida ([13]; Rate 140 g/ha): 100
Plant response rating, Cocklebur ([14]; Rate 35 g/ha): 0
Plant response rating, Cocklebur ([14]; Rate 70 g/ha): 0
Plant response rating, Cocklebur ([14]; Rate 140 g/ha): 0
Plant response rating, Corn (corn (Zea mays); Rate 35 g/ha): 5
Plant response rating, Corn (corn (Zea mays); Rate 70 g/ha): 10
Plant response rating, Corn (corn (Zea mays); Rate 140 g/ha): 10
Plant response rating, H. beggarticks ([15]; Rate 35 g/ha): 20
Plant response rating, H. beggarticks ([15]; Rate 70 g/ha): 100
Plant response rating, H. beggarticks ([15]; Rate 140 g/ha): 100
Plant response rating, I. morningglory ([16]; Rate 35 g/ha): 15
Plant response rating, I. morningglory ([16]; Rate 70 g/ha): 15
Plant response rating, I. morningglory ([16]; Rate 140 g/ha): 20
Plant response rating, Large crabgrass ([17]; Rate 35 g/ha): 100
Plant response rating, Large crabgrass ([17]; Rate 70 g/ha): 100
Plant response rating, Large crabgrass ([17]; Rate 140 g/ha): 100
Plant response rating, Purple nutsedge ([18]; Rate 35 g/ha): 0
Plant response rating, Purple nutsedge ([18]; Rate 70 g/ha): 0
Plant response rating, Purple nutsedge ([18]; Rate 140 g/ha): 0
Plant response rating, Soybean (soybean (Glycine max); Rate 35 g/ha): 0
Plant response rating, Soybean (soybean (Glycine max); Rate 70 g/ha): 0
Plant response rating, Soybean (soybean (Glycine max); Rate 140 g/ha): 0
Plant response rating, Purple nutsedge ([1]; POSTEMERGENCE, Rate 250 g/ha): 0
Plant response rating, Purple nutsedge ([1]; PREEMERGENCE, Rate 32 g/ha): 0
Plant response rating, Purple nutsedge ([1]; PREEMERGENCE, Rate 64 g/ha): 0
Plant response rating, Purple nutsedge ([1]; PREEMERGENCE, Rate 125 g/ha): 0
Plant response rating, Purple nutsedge ([1]; PREEMERGENCE, Rate 250 g/ha): 50
Plant response rating, Spanishneedles ([2]; POSTEMERGENCE, Rate 250 g/ha): 10
Plant response rating, Spanishneedles ([2]; PREEMERGENCE, Rate 32 g/ha): 40
Plant response rating, Spanishneedles ([2]; PREEMERGENCE, Rate 64 g/ha): 80
Plant response rating, Spanishneedles ([2]; PREEMERGENCE, Rate 125 g/ha): 90
Plant response rating, Alexandergrass ([3]; POSTEMERGENCE, Rate 250 g/ha): 90
Plant response rating, Alexandergrass ([3]; PREEMERGENCE, Rate 32 g/ha): 10
Plant response rating, Alexandergrass ([3]; PREEMERGENCE, Rate 64 g/ha): 75
Plant response rating, Alexandergrass ([3]; PREEMERGENCE, Rate 125 g/ha): 90
Plant response rating, Bermudagrass ([4]; POSTEMERGENCE, Rate 250 g/ha): 30
Plant response rating, Com. groundsel ([5]; POSTEMERGENCE, Rate 250 g/ha): 75
Plant response rating, Com. groundsel ([5]; PREEMERGENCE, Rate 32 g/ha): 98
Plant response rating, Com. ragweed ([6]; POSTEMERGENCE, Rate 250 g/ha): 70
Plant response rating, Com. ragweed ([6]; PREEMERGENCE, Rate 32 g/ha): 90
Plant response rating, Itchgrass ([7]; POSTEMERGENCE, Rate 250 g/ha): 85
Plant response rating, Itchgrass ([7]; PREEMERGENCE, Rate 32 g/ha): 20
Plant response rating, Itchgrass ([7]; PREEMERGENCE, Rate 64 g/ha): 20
Plant response rating, Itchgrass ([7]; PREEMERGENCE, Rate 125 g/ha): 50
Plant response rating, Itchgrass ([7]; PREEMERGENCE, Rate 250 g/ha): 95
Plant response rating, Johnsongrass ([8]; POSTEMERGENCE, Rate 250 g/ha): 90
Plant response rating, Johnsongrass ([8]; PREEMERGENCE, Rate 32 g/ha): 5
Plant response rating, Johnsongrass ([8]; PREEMERGENCE, Rate 64 g/ha): 40
Plant response rating, Johnsongrass ([8]; PREEMERGENCE, Rate 125 g/ha): 90
Plant response rating, Large crabgrass ([9]; POSTEMERGENCE, Rate 250 g/ha): 85
Plant response rating, P. morninglory ([10]; POSTEMERGENCE, Rate 250 g/ha): 80
Plant response rating, P. morninglory ([10]; PREEMERGENCE, Rate 32 g/ha): 70
Plant response rating, P. morninglory ([10]; PREEMERGENCE, Rate 64 g/ha): 80
Plant response rating, Sandbur ([11]; POSTEMERGENCE, Rate 250 g/ha): 10
Plant response rating, Sandbur ([11]; PREEMERGENCE, Rate 32 g/ha): 20
Plant response rating, Sandbur ([11]; PREEMERGENCE, Rate 64 g/ha): 65
Plant response rating, Sandbur ([11]; PREEMERGENCE, Rate 125 g/ha): 95
Plant response rating, Surinam grass ([12]; POSTEMERGENCE, Rate 250 g/ha): 30
Plant response rating, Surinam grass ([12]; PREEMERGENCE, Rate 32 g/ha): 65
Plant response rating, Surinam grass ([12]; PREEMERGENCE, Rate 64 g/ha): 35
Plant response rating, Surinam grass ([12]; PREEMERGENCE, Rate 125 g/ha): 98
